Tests used:
Format in all cases: biochemical
[1] = tested on: angiotensin-I-converting enzyme (ACE-I; EC 3.4.15.1); experiment: ACE-I inhibition assay (ACE Kit-WST); settings: 1 mg/mL, 37 °C, 1 h, absorbance 450 nm
Description: Protein isolates from all seven oat varieties and selected synthesised peptides were tested in vitro for ACE-I inhibition. The bioassay (ACE Kit—WST, Dojindo Laboratories, Kumamoto, Japan) was carried out according to the manufacturer’s instructions. First, 20 μL of each sample inhibitor at a concentration of 1 mg/mL ddH2O was added to 20 μL substrate and 20 μL enzyme working solution in triplicate. Samples were incubated at 37 °C for 1 h. Each well then had 200 μL indicator working solution added, followed by a further incubation at room temperature for 10 min. Absorbance at 450 nm was read using a FLUOstar Omega microplate reader (BMG LABTECH GmbH, Offenburg, Germany). The percentage inhibition was calculated using the following equation:% ACE-I inhibition = 100% Initial activity − Inhibitor × 100/100% Initial activity(2)

[2] = tested on: dipeptidyl peptidase-IV (DPP-IV; EC 3.4.14.5); settings: synthesised peptides, 1 mg/mL; 10 μL sample at 1 mg/mL assay buffer + 30 μL buffer, 10 μL DPP-IV, 50 μL substrate; 37 °C, 30 min; fluorescence 355/460 nm; mean of triplicate samples
Description: Protein isolates from all seven oat varieties and selected synthesised peptides were tested in vitro for DPP-IV inhibition. […] First, 10 μL of each sample inhibitor at a concentration of 1 mg/mL assay buffer was added to 30 μL diluted assay buffer, 10 μL diluted DPP-IV, and 50 μL substrate solution, in triplicate. Samples were incubated at 37 °C for 30 min. Fluorescence was read with excitation wavelengths of 355 nm and emission wavelengths of 460 nm using a FLUOstar Omega microplate reader (BMG LABTECH GmbH, Offenburg, Germany). The percentage inhibition was calculated using the following equation:% DPP-IV inhibition = 100% Initial activity − Inhibitor × 100/100% Initial activity (3)

renin (EC 3.4.23.15) = experiment: Renin Inhibition Screening Assay; settings: synthesised peptides, 1 mg/mL; 10 μL sample at 1 mg/mL DMSO + 20 μL substrate, 150 μL buffer, 10 μL renin; 37 °C, 15 min; fluorescence 340/500 nm; mean of triplicate samples
Description: Protein isolates from all seven oat varieties and selected synthesised peptides were tested in vitro for renin inhibition activity. The Renin Inhibition Screening Assay (Cambridge BioSciences, Cambridge, UK) was carried out as per the manufacturer’s instructions. Briefly, 10 μL of each sample inhibitor at a concentration of 1 mg/mL dimethyl sulfoxide (DMSO) was added to 20 μL renin substrate, 150 μL assay buffer, and 10 μL renin, in triplicate. The samples were incubated at 37 °C for 15 min, and read with excitation wavelengths of 340 nm and emission wavelengths of 500 nm. Fluorescence was read using a FLUOstar Omega microplate reader (BMG LABTECH GmbH, Offenburg, Germany). The percentage inhibition was calculated using the following equation:% Renin inhibition = 100% Initial activity − Inhibitor × 100/100% Initial activity (1)

[3] = synthesised peptides, 20 μL sample at 1 mg/mL ddH2O + 20 μL substrate, 20 μL enzyme, mean of triplicate samples

Row | Compound | % ACE-I inhibition [1, 3] [%] | further results
1 | FEPL [chemically synthesised peptide; 12S globulin f(53–56), papain] | 48.9 ± 7.8 | –
2 | FLLA [chemically synthesised peptide; 11S globulin/12S globulin f(203–206), papain] | 97 ± 16.2 | –
3 | FPIL [chemically synthesised peptide; 11S globulin f(364–367), ficin] | – | % DPP-IV inhibition [2]: 13.1 ± 3.2%
4 | IFFFL [chemically synthesised peptide; Avenin f(3–7), ficin] | 53 ± 41.2 | % Renin inhibition (renin (EC 3.4.23.15)): 17.1% (±2.6%)
5 | C[C@H](CS)C(=O)N1CCC[C@H]1C(=O)O [captopril, reference compound] | – | % ACE-I inhibition ([1]; positive control, triplicate): 97.7% (±23.2%)
